This is an account of results in article PMC4413198, “Inhibition of N-Type Calcium Channels by Fluorophenoxyanilide Derivatives” (Marine Drugs, 2015).

Test [1] has as its target T1, human Cav2.2 channels (Homo sapiens, UniProt Q00975). The test is described as follows: SH-SY5Y neuroblastoma FLIPR assay of KCl-evoked calcium responses in presence of nifedipine. The test is classed as cell-based. The following applies: for extent of inhibition of KCl-induced Ca2+ responses: in words; for inhibition at 300 µM: SH-SY5Y, read-out: % Max inhibition.
Test [2] relates to N-type channel. The following applies: cited from earlier work.
In test [3] the target is T1, human Cav2.2 channels. The following applies: HEK293 cells stably expressing human Cav2.2; n = 4–7; personal communication ref 40; read-out: IC50, block of calcium currents; cited from earlier work.
On the set-up of test [4]: method as in earlier work. The conditions noted are these: primary endpoint; cited from earlier work.
Setting [5] is: SH-SY5Y cells, 90 mM KCl and 5 mM CaCl2, 10 µM nifedipine, 5 min pre-treatment.
The mark [6] stands for this setting: SH-SY5Y cells, 90 mM KCl and 5 mM CaCl2, 10 µM nifedipine, 5 min pre-treatment, read-out: IC50.

Each structure is given as a SMILES string. Several values for one entry are separate records, joined by “and”; a condition that tells them apart may be missing. Identical values can stand only once. Like-named read-outs stand apart in the source and are kept apart here.

Broadly, the IC50 is the midpoint of a concentration-inhibition curve. One may read the inhibition as the drop in the measured response relative to a control, in per cent.

T1 sequence (Q00975 whole entry): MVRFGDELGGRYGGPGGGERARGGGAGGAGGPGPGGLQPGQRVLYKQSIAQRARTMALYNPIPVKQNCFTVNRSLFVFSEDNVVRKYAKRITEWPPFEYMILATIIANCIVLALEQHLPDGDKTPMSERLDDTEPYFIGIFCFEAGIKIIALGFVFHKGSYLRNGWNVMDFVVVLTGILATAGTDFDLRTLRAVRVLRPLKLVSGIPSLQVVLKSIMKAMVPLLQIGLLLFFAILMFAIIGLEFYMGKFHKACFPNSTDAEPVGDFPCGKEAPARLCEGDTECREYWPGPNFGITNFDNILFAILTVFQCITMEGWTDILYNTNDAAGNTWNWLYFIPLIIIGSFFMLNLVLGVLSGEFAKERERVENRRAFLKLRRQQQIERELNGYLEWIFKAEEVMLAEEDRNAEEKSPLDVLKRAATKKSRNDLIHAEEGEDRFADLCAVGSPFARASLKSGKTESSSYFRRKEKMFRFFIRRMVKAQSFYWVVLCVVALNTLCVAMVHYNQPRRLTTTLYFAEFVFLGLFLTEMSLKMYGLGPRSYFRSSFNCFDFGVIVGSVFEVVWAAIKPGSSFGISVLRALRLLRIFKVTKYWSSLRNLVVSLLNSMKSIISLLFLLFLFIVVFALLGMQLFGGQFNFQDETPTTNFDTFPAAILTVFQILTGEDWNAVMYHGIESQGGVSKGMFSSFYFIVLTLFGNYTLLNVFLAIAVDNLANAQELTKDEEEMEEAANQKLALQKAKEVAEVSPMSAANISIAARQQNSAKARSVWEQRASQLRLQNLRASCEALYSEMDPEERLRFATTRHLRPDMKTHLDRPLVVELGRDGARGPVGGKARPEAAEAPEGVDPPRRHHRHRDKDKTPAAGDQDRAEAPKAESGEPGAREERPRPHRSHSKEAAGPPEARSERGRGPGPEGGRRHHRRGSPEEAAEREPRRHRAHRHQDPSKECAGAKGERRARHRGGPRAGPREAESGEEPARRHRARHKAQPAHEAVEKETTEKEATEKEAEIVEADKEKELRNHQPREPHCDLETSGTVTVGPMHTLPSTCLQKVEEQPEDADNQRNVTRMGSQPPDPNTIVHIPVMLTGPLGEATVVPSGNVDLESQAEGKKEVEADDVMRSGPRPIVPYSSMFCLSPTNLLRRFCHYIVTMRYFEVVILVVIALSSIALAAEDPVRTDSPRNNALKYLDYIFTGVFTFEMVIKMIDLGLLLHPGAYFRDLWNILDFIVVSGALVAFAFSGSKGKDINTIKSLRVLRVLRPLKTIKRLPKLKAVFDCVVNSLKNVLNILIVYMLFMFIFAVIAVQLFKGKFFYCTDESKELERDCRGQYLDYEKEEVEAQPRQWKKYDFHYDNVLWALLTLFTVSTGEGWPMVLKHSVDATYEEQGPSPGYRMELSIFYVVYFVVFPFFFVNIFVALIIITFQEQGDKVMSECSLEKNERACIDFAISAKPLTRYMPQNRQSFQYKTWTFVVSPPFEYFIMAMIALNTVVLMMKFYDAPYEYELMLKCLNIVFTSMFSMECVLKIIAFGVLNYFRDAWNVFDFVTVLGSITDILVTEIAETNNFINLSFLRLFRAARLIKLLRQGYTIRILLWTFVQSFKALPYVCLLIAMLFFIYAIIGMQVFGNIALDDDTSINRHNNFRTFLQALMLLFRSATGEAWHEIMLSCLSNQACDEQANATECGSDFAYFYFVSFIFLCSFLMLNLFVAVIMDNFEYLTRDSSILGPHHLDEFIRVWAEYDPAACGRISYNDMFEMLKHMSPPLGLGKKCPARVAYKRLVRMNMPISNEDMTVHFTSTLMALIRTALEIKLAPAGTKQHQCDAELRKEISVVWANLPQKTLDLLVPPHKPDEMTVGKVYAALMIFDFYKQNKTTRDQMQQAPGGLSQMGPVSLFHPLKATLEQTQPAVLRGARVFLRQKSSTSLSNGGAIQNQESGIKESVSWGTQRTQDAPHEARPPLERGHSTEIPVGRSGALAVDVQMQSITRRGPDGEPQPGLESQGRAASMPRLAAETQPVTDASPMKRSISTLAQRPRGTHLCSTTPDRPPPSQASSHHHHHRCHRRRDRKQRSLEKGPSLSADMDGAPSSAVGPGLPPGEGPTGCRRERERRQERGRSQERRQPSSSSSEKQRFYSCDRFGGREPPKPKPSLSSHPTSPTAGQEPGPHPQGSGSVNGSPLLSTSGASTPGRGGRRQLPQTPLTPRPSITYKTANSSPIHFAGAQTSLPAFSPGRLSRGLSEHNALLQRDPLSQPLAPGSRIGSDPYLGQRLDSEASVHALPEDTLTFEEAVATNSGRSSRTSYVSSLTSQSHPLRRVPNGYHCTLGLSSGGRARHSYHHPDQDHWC
T1 sequence (P54284 whole entry partner): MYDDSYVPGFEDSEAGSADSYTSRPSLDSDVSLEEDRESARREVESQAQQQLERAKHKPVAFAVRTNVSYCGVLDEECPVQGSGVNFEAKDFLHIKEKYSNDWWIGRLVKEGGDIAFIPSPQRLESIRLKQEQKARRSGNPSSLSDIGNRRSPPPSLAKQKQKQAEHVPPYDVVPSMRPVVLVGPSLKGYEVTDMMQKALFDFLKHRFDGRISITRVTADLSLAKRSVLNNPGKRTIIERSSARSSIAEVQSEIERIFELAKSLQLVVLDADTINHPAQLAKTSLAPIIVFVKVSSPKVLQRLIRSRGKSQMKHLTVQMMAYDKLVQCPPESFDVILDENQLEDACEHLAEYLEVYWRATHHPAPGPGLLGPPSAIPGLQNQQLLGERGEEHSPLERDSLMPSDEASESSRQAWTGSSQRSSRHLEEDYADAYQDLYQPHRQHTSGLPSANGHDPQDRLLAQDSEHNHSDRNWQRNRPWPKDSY
T1 sequence (P54289 25-956 partner limits assumed): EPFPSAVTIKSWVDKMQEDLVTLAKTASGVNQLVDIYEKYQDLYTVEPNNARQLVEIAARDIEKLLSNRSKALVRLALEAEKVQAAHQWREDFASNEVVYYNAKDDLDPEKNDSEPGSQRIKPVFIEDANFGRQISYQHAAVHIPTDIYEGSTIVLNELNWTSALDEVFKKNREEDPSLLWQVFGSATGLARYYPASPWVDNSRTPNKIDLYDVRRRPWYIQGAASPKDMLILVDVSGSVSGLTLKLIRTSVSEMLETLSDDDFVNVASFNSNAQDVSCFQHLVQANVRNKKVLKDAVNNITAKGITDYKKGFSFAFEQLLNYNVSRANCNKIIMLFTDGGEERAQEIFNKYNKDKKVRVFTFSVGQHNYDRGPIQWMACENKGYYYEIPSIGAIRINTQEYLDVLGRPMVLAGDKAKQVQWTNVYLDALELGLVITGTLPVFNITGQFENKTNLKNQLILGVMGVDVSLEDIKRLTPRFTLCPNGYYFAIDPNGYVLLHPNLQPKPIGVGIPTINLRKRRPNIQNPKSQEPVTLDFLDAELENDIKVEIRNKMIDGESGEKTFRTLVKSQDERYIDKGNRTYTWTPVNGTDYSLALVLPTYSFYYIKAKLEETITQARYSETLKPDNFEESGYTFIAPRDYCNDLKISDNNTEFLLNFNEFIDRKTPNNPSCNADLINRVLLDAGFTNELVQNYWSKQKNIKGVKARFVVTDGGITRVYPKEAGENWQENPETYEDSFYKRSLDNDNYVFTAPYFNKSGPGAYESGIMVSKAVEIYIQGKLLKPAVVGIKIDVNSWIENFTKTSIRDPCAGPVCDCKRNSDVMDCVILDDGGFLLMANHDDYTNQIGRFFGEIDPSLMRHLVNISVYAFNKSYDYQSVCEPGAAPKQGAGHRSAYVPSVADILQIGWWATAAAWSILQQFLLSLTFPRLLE
T1 sequence (P54289 957-1103 partner limits assumed): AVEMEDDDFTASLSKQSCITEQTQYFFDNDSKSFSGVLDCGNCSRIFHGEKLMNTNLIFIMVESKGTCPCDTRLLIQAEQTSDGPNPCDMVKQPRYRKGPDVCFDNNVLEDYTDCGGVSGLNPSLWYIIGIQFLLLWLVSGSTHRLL

Regarding `Cl.N=C(N)NCCCOc1ccc(C(=O)Nc2ccc(Oc3ccc(F)cc3)cc2)cc1` [6c, N-(4-(4-Fluorophenoxy)phenyl)-4-(3-guanidinopropoxy)benzamide hydrochloride], the logIC50 result in test [1] (setting [5]) is on record as “–3.14”. In addition, the IC50 in test [1] (setting [6]) came to 723 µM. Also, the “extent of inhibition of KCl-induced Ca2+ responses” value in test [1] (SH-SY5Y cells) was “partially inhibited responses”. In test [1], the inhibition at 300 µM is 19%.
For the compound `NCCCCCCCC(=O)Nc1ccc(OCCCN)cc1C(=O)Nc1ccc(Oc2ccc(F)cc2)cc1` [compound 4], the “activity in radioligand-displacement assay (in words)” value in test [2] is listed as “comparatively weak activity”.
Consider `NCCCOc1ccc(C(=O)Nc2ccccc2Oc2ccc(F)cc2)cc1` [5a, 4-(3-Aminopropoxy)-N-(2-(4-fluorophenoxy)phenyl)benzamide], for which the logIC50 result in test [1] (setting [5]) is listed as “–4.34”. Further, in test [1] (setting [6]), the IC50 worked out at 46 µM. Also, the “extent of inhibition of KCl-induced Ca2+ responses” value in test [1] (SH-SY5Y cells) is “fully blocked”.
Consider `Cl.N=C(N)NCCCOc1ccc(C(=O)Nc2cccc(Oc3ccc(F)cc3)c2)cc1` [6b, N-(3-(4-Fluorophenoxy)phenyl)-4-(3-guanidinopropoxy)benzamide hydrochloride], for which, in test [1] (setting [5]), the logIC50 entry is “–3.73”. Moreover, the IC50 in test [1] (setting [6]) amounted to 185 µM.
With `Cl.N=C(N)NCCCOc1ccc(C(=O)Nc2ccccc2Oc2ccc(F)cc2)cc1` [6a, N-(2-(4-Fluorophenoxy)phenyl)-4-(3-guanidinopropoxy)benzamide hydrochloride], the logIC50 entry in test [1] (setting [5]) is “–3.90”. Further, the inhibition at 300 µM in test [1] came out at 65%. Also, the IC50 in test [3] is 36.3 ± 2.4 µM.
For `NCCCOc1ccc(C(=O)Nc2ccc(Oc3ccc(F)cc3)cc2)cc1` [5c, 4-(3-Aminopropoxy)-N-(4-(4-fluorophenoxy)phenyl)benzamide], the logIC50 entry in test [1] (setting [5]) is “~–3.12”. Further, the IC50 in test [1] (setting [6]) came to 764 µM. In test [1] (SH-SY5Y cells), the “extent of inhibition of KCl-induced Ca2+ responses” value is given as “partially inhibited responses”. Further, the inhibition at 300 µM in test [1] was determined as 30%.
For `O=C(CC(c1ccccc1)c1ccccc1)N1CCN(C(c2ccccc2)c2ccccc2)CC1` [Z160], the “outcome of Phase II clinical studies” value in test [4] is “failed to meet the primary endpoint”.
Regarding `N=C(N)NCCCCCCCC(=O)Nc1ccc(OCCCNC(=N)N)cc1C(=O)Nc1ccc(Oc2ccc(F)cc2)cc1` [compound 3, reference compound], in test [1], the “extent of inhibition of Ca2+ responses at 1 mM” value was “only partially inhibited responses”, the logIC50 result is reported as “~–2.84” and the inhibition at 300 µM came out at 15%. Further, the IC50 in test [1] (IC50) is ~1450 µM and 1450 µM. Moreover, the “activity in radioligand-displacement assay (in words)” value in test [2] is recorded as “most potent fluorinated analogue”.
In the case of `NCCCOc1ccc(C(=O)Nc2cccc(Oc3ccc(F)cc3)c2)cc1` [5b, 4-(3-Aminopropoxy)-N-(3-(4-fluorophenoxy)phenyl)benzamide], the logIC50 result in test [1] (setting [5]) is on record as “–4.45”. Further, in test [1] (setting [6]), the IC50 turned out to be 35 µM. Further, the “extent of inhibition of KCl-induced Ca2+ responses” value in test [1] (SH-SY5Y cells) was “fully blocked”.
